This note sets out measurements from patent publication US20230051589A1, “COMPOUNDS AND COMPOSITIONS FOR TREATING CONDITIONS ASSOCIATED WITH NLRP ACTIVITY” (Novartis AG, priority 2018, published 2023).

The assay deals with IL-1β production in PMA-differentiated THP-1 cells. The assay is described as follows: IL-1β production in PMA-differentiated THP-1 cells stimulated with gramicidin (hTHP-1 assay, 2% fetal bovine serum; Procedures 1-3). It is filed as cell-based, human. Particulars: Table B3; hTHP-1 assay containing 2% fetal bovine serum, gramicidin stimulation, IL-1β readout; read-out: hTHP-1 IC50. In short, it runs like this: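 IL-1β released into supernatants was read by HTRF after 2 h gramicidin (5 μM) challenge. Before challenge, compounds (3-fold dilutions, top 100 μM, 0.37% DMSO) were given 1 h on THP-1 cells differentiated with PMA (20 ng/ml, 16-18 h) and held in 2% FBS medium.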
In general, IC50 refers to the concentration at which inhibition is half-maximal. For `NS(=O)(=NC(=O)Nc1c2c(cc3c1CCC3)CCC2)c1ccc([C@H]2CCCN2)s1` (single isomer, unassigned) [Example 824, (S) or (R) -N′-((1,2,3,5,6,7-hexahydro-s-indacen-4-yl)carbamoyl)-5-((R)-pyrrolidin-2-yl)thiophene-2-sulfommidamide], the IC50 lay in the range of 5000 to 30000 nM.
Take `CCn1ccc(S(N)(=O)=NC(=O)Nc2c3c(cc4c2CC4)CCC3)n1` (single isomer, unassigned) [Example 825]: the 50% inhibitory concentration (IC50) was 40 to 200 nM.
`CCn1ccc(S(N)(=O)=NC(=O)Nc2c3c(cc4c2CC4)CCC3)n1` (single isomer, unassigned) [Example 826, (S) or (R) -1-ethyl-N′-((2,4,5,6-tetrahydro-1H-cyclobuta[f]inden-3-yl)carbamoyl)-1H-pyrazole-3-sulfonimidamide]: the IC50 lay within 1000 to 5000 nM.
The value for `CC(C)(O)c1ccnc(S(N)(=O)=NC(=O)Nc2c3c(c(C#N)c4c2CCC4)CCC3)c1` (single isomer, unassigned) [Example 827, (R) or (S)-N′-((8-cyano-1,2,3,5,6,7-hexahydro-s-indacen-4-yl)carbamoyl)-4-(2-hydroxypropan-2-yl)pyridine-2-sulfonimidamide] was 200 to 1000 nM; that for `CC(C)(O)c1ccnc(S(N)(=O)=NC(=O)Nc2c3c(c(C#N)c4c2CCC4)CCC3)c1` (single isomer, unassigned) [Example 828, (S) or (R)-N′-((8-cyano-1,2,3,5,6,7-hexahydro-s-indacen-4-yl)carbamoyl)-4-(2-hydroxypropan-2-yl)pyridine-2-sulfonimidamide] was 1000 to 5000 nM; that for `CC(C)(CO)c1ncc(S(N)(=O)=NC(=O)Nc2c3c(c(C#N)c4c2CCC4)CCC3)s1` (single isomer, unassigned) [Example 829, (S) or (R)-N′-((8-cyano-1,2,3,5,6,7-hexahydro-s-indacen-4-yl)carbamoyl)-2-(1-hydroxy-2-methylpropan-2-yl)thiazole-5-sulfonimidamide] was 1000 to 5000 nM.
Under `CC(C)(CO)c1ncc(S(N)(=O)=NC(=O)Nc2c3c(c(C#N)c4c2CCC4)CCC3)s1` (single isomer, unassigned) [Example 830, (R) or (S)-N′-((8-cyano-1,2,3,5,6,7-hexahydro-s-indacen-4-yl)carbamoyl)-2-(1-hydroxy-2-methylpropan-2-yl)thiazole-5-sulfonimidamide] stands 40 to 200 nM; under `CC(C)(O)c1ccc(S(N)(=O)=NC(=O)Nc2c3c(cc4c2C(=O)CC4)CCC3)cn1` (single isomer, unassigned) [Example 831, (S) or (R)-6-(2-hydroxypropan-2-yl)-N′-((3-oxo-1,2,3,5,6,7-hexahydro-s-indacen-4-yl)carbamoyl)pyridine-3-sulfonimidamide], greater than 30000 nM; under `CC(C)(O)c1ccc(S(N)(=O)=NC(=O)Nc2c3c(cc4c2C(=O)CC4)CCC3)cn1` (single isomer, unassigned) [Example 832, (R) or (S)-6-(2-hydroxypropan-2-yl)-N′-((3-oxo-1,2,3,5,6,7-hexahydro-s-indacen-4-yl)carbamoyl)pyridine-3-sulfonimidamide], 200 to 1000 nM.
The value for `NS(=O)(=NC(=O)Nc1c2c(cc3c1CC3)CCC2)c1sc2c(c1F)CNCC2` (single isomer, unassigned) [Example 833, (R) or (S)-3-fluoro-N′-((2,4,5,6-tetrahydro-1H-cyclobuta[f]inden-3-yl)carbamoyl)-4,5,6,7-tetrahydrothieno[3,2-c]pyridine-2-sulfonimidamide] was 8 to 40 nM.
Take `NS(=O)(=NC(=O)Nc1c2c(cc3c1CC3)CCC2)c1sc2c(c1F)CNCC2` (single isomer, unassigned) [Example 834, (S) or (R)-3-fluoro-N′-((2,4,5,6-tetrahydro-1H-cyclobuta[f]inden-3-yl)carbamoyl)-4,5,6,7-tetrahydrothieno[3,2-c]pyridine-2-sulfonimidamide]: the IC50 fell in the range of 200 to 1000 nM.
In the case of `CN1CCc2sc(S(N)(=O)=NC(=O)Nc3c4c(cc5c3CC5)CCC4)c(F)c2C1` (single isomer, unassigned) [Example 835, (R) or (S)-3-fluoro-5-methyl-N′-((2,4,5,6-tetrahydro-1H-cyclobuta[f]inden-3-yl)carbamoyl)-4,5,6,7-tetrahydrothieno[3,2-c]pyridine-2-sulfonimidamide], the IC50 is 40 to 200 nM.
`CN1CCc2sc(S(N)(=O)=NC(=O)Nc3c4c(cc5c3CC5)CCC4)c(F)c2C1` (single isomer, unassigned) [Example 836, (S) or (R)-3-fluoro-5-methyl-N′-((2,4,5,6-tetrahydro-1H-cyclobuta[f]inden-3-yl)carbamoyl)-4,5,6,7-tetrahydrothieno[3,2-c]pyridine-2-sulfonimidamide]: the 50% inhibitory concentration (IC50) lay within 1000 to 5000 nM.
As for `CNCc1csc(S(N)(=O)=NC(=O)Nc2c3c(cc4c2CC4)CCC3)c1` (single isomer, unassigned) [Example 837, (R) or (S)-4-((methylamino)methyl)-N′-((2,4,5,6-tetrahydro-1H-cyclobuta[f]inden-3-yl)carbamoyl)thiophene-2-sulfonimidamide], the IC50 fell in the range of 40 to 200 nM.
The value for `CNCc1csc(S(N)(=O)=NC(=O)Nc2c3c(cc4c2CC4)CCC3)c1` (single isomer, unassigned) [Example 838, (S) or (R)-4-((methylamino)methyl)-N′-((2,4,5,6-tetrahydro-1H-cyclobuta[f]inden-3-yl)carbamoyl)thiophene-2-sulfonimidamide] was 200 to 1000 nM.
The value for `NS(=O)(=NC(=O)Nc1c2c(cc3c1CC3)CCC2)c1nn(C(F)F)cc1F` (single isomer, unassigned) [Example 839, (R) or (S)-1-(difluoromethyl)-4-fluoro-N′-((2,4,5,6-tetrahydro-1H-cyclobuta[f]inden-3-yl)carbamoyl)-1H-pyrazole-3-sulfonimidamide] was 40 to 200 nM; that for `NS(=O)(=NC(=O)Nc1c2c(cc3c1CC3)CCC2)c1nn(C(F)F)cc1F` (single isomer, unassigned) [Example 840, (S) or (R)-1-(difluoromethyl)-4-fluoro-N′-((2,4,5,6-tetrahydro-1H-cyclobuta[f]inden-3-yl)carbamoyl)-1H-pyrazole-3-sulfonimidamide] was 1000 to 5000 nM.
Regarding `NS(=O)(=NC(=O)Nc1c2c(cc3c1CC3)CCC2)c1sc2c(c1F)COCC2` (single isomer, unassigned) [Example 841, (R) or (S)-3-fluoro-N′-((2,4,5,6-tetrahydro-1H-cyclobuta[f]inden-3-yl)carbamoyl)-6,7-dihydro-4H-thieno[3,2-c]pyran-2-sulfonimidamide], the IC50 is 200 to 1000 nM.
For `NS(=O)(=NC(=O)Nc1c2c(cc3c1CC3)CCC2)c1sc2c(c1F)COCC2` (single isomer, unassigned) [Example 842, (S) or (R)-3-fluoro-N′-((2,4,5,6-tetrahydro-1H-cyclobuta[f]inden-3-yl)carbamoyl)-6,7-dihydro-4H-thieno[3,2-c]pyran-2-sulfonimidamide], the 50% inhibitory concentration (IC50) fell in the range of 5000 to 30000 nM.
Consider `NS(=O)(=NC(=O)Nc1c2c(cc3c1CC3)CCC2)c1sc(CN2CCC2)cc1F` (single isomer, unassigned) [Example 843, (R) or (S)-5-(azetidin-1-ylmethyl)-3-fluoro-N′-((2,4,5,6-tetrahydro-1H-cyclobuta[f]inden-3-yl)carbamoyl)thiophene-2-sulfonimidamide], for which the IC50 lay in the range of 40 to 200 nM.
On to `NS(=O)(=NC(=O)Nc1c2c(cc3c1CC3)CCC2)c1sc(CN2CCC2)cc1F` (single isomer, unassigned) [Example 844, (S) or (R)-5-(azetidin-1-ylmethyl)-3-fluoro-N′-((2,4,5,6-tetrahydro-1H-cyclobuta[f]inden-3-yl)carbamoyl)thiophene-2-sulfonimidamide], for which the IC50 lay within 1000 to 5000 nM.
Under `CC(NC1CCC1)c1ccc(S(N)(=O)=NC(=O)Nc2c3c(cc4c2CC4)CCC3)c(F)c1` (single isomer, unassigned) [Example 845, (R/S, R)-4-(1-(cyclobutylamino)ethyl)-2-fluoro-N′-((2,4,5,6-tetrahydro-1H-cyclobuta[f]inden-3-yl)carbamoyl)benzenesulfonimidamide] stands 200 to 1000 nM; under `CC(NC1CCC1)c1ccc(S(N)(=O)=NC(=O)Nc2c3c(cc4c2CC4)CCC3)c(F)c1` (single isomer, unassigned) [Example 847, (R, R) or (S, R) -4-(1-(cyclobutylamino)ethyl)-2-fluoro-N′-((2,4,5,6-tetrahydro-1H-cyclobuta[f]inden-3-yl)carbamoyl)benzenesulfonimidamide], 200 to 1000 nM.
As for `CC(NC1CCC1)c1ccc(S(N)(=O)=NC(=O)Nc2c3c(cc4c2CC4)CCC3)c(F)c1` (single isomer, unassigned) [Example 848, (S, R) or (R, R) -4-(1-(cyclobutylamino)ethyl)-2-fluoro-N′-((2,4,5,6-tetrahydro-1H-cyclobula[f]inden-3-yl)carbamoyl)benzenesulfonimidamide], the IC50 was 200 to 1000 nM.
`CC(NC1CCC1)c1ccc(S(N)(=O)=NC(=O)Nc2c3c(cc4c2CC4)CCC3)c(F)c1` (single isomer, unassigned) [Example 849, (S, S) or (R, S) -4-(1-(cyclobutylamino)ethyl)-2-fluoro-N′-((2,4,5,6-tetrahydro-1H-cyclobuta[f]inden-3-yl)carbamoyl)benzenesulfonimidamide]: the IC50 lay within 5000 to 30000 nM.
For the molecule `CC(NC1CCC1)c1ccc(S(N)(=O)=NC(=O)Nc2c3c(cc4c2CC4)CCC3)c(F)c1` (single isomer, unassigned) [Example 850, (R, S) or (S, S) -4-(1-(cyclobutylamino)ethyl)-2-fluoro-N′-((2,4,5,6-tetrahydro-1H-cyclobuta[f]inden-3-yl)carbamoyl)benzenesulfonimidamide], the IC50 was 5000 to 30000 nM.
